Measured values reported in patent publication US20110301239A1, “USE OF NOVEL LIPID MEDIATORS TO INHIBIT ANGIOGENESIS” (The Brigham and Women's Hospital, Inc., priority 2008, published 2011).

Columns and labels:
PMN infiltration = assay: Peritonitis model, PMN infiltration; format: in vivo
neutrophils = assay: Neutrophil infiltration in suture-inflamed corneas (anti-neutrophil NIMP-R14 staining of cross-sections); format: in vivo, BALB/c mice; conditions: for neutrophils in inflamed cornea: 100 ng/10 μl subconjunctival at 0 h and 48 h, mean±SEM, n=3; for inhibition of neutrophils recruitment into the inflamed corneas: at 24 and 72 h, compared to vehicle-treated group, p<0.05
Description: (§1) Six to eight-week-old male BALB/c (Taconic Farms, Germantown, N.Y.) mice were used in all experiments. All experimental protocols were approved by the Schepens Eye Research Institute Animal Care and Use Committee, and all animals were treated according to the Association for Research in Vision and Ophthalmology Statement for the Use of Animals in Ophthalmic and Vision Research.
(§2) The standard model for induction of inflammatory corneal NV is associated with development of intrastromal vessels in close association with a mixed-cell (primarily neutrophilic) infiltrate.^14,15 Three interrupted sutures (11-0 nylon, Sharpoint; Vanguard, Houston, Tex.) were placed intrastromally with two stromal incursions extending over 120° of the corneal circumference each to induce inflammatory corneal NV, which is also associated with significant LA, as described previously.^14 The corneas were followed by slit-lamp biomicroscopy for corneal NV development. NV was graded between 0 and 3, with increments of 0.5, using a grid system per each corneal quadrant based on the centripetal extent of the neovascular branches from the limbus. Scores for each quadrant then summed to derive the NV index (range 0 to 12) for each eye, as previously described.^14
(§3) BALB/c mice were randomized to receive RvD1, RvE1 or vehicle (normal saline) by subconjunctival injection in a masked fashion after suture or hydron pellet placement. The compounds were administered at a dose of 100 ng/10 μl per mouse every 48 h after suture or pellet placed. For these experiments, RvD1 and RvE1 were prepared by total organic synthesis as reported previously,^17,18 in the total organic synthesis core for NIH P-50 DE0169191. The physical properties were monitored routinely via LC/MS/MS matching the reported biological and physical properties prior to analysis in present experiments.
(§4) Full thickness corneal tissue or 8 μm-frozen sections were fixed in acetone for 15 minutes at room temperature. To block non-specific staining, anti-FcR mAb ([…], FcγIII/II receptor) or 10% goat serum was used before primary antibodies or isotype-matched control antibodies were applied at 4° C. overnight. Thereafter, samples were incubated with secondary antibodies at RT. Each step was followed by three thorough washings in PBS for 5-10 minutes. Finally, the samples were covered with mounting medium (Vector Laboratories, Burlingame, Calif.) and analyzed by epifluorescence microscopy (Eclipse E800; Nikon, Tokyo, Japan). The following antibodies were used: FITC-conjugated rat anti-mouse CD31 (Santa Cruz Biotechnology, Santa Cruz, Calif.), purified rat anti-mouse neutrophil (NIMP-R14, Abcam, Cambridge, Mass.), purified rat anti-mouse F4/80 (Novus Biologicals, Littleton, Colo.) and purified rabbit anti-mouse LYVE-1 (Abcam, Cambridge, Mass.). The secondary antibodies were Rodamine-conjugated donkey anti-rabbit IgG and Rodamine-conjugated goat anti-rat IgG (Santa Cruz Biotechnology, Santa Cruz, Calif.). Isotype controls included FITC-conjugated rat IgG2a, purified rat IgG2b, and purified rabbit IgG (Santa Cruz Biotechnology, Santa Cruz, Calif.).

macrophages = assay: Macrophage infiltration in suture-inflamed corneas (anti-F4/80 staining of cross-sections); format: in vivo, BALB/c mice; conditions: 72 h after suture placement; 100 ng/10 μl subconjunctival; mean±SEM, n=3; vehicle 83±3
Description: as §1, with “Research. […]” for “Research.”
(§5) BALB/c mice were randomized to receive RvD1, RvE1 or vehicle (normal saline) by subconjunctival injection in a masked fashion after suture or hydron pellet placement. […] The physical properties were monitored routinely via LC/MS/MS matching the reported biological and physical properties prior to analysis in present experiments.
Full thickness corneal tissue or 8 μm-frozen sections were fixed in acetone for 15 minutes at room temperature. […] Finally, the samples were covered with mounting medium (Vector Laboratories, Burlingame, Calif.) and analyzed by epifluorescence microscopy (Eclipse E800; Nikon, Tokyo, Japan). […]

TNF-α = assay: Real-time PCR of TNF-α mRNA in suture-inflamed corneas; format: in vivo, BALB/c mice; conditions: vs vehicle
Description: as §1, §2, §3
Corneas were carefully dissected to ensure that the conjunctival and iris tissues were not included. To extract mRNA from whole-thickness corneas, two corneas were pooled as a sample in each group. To extract mRNA from corneal epithelial and stroma-endothelial layers separately, intact corneas were placed in 30 μl of RNA stabilization reagent (RNAlater, Qiagen, Valencia, Calif.) at 4° C. overnight and then stored at −30° C. for 2-3 days. […]
(§6) A combined-method for total RNA isolation was employed, using Trizol (Invitrogen Corp., Carlsbad, Calif.) and RNeasy MinElute Spin Columns (Qiagen, Valencia, Calif.), as described previously.^21 Reverse transcription of total RNA was conducted using oligo(dT)20 primer and Superscript™ III Reverse Transcriptase (Invitrogen, Carlsbad, Calif.). […] The mean density of each band was measured by using NIH image J software. […]

IL-1α = assay: Real-time PCR of IL-1α mRNA in suture-inflamed corneas; format: in vivo, BALB/c mice; conditions: 24 h and 72 h after suture placement, vs vehicle
Description: as §1, with “Research. […]” for “Research.”
as §5, with “experiments. […]” for “experiments.”
as §6

VEGF-A = assay: Real-time PCR of VEGF-A mRNA in suture-inflamed corneas; format: in vivo, BALB/c mice; conditions: 24 h and 72 h after suture placement, vs vehicle-treated group
Description: as §1, with “Research. […]” for “Research.”
as §5, with “experiments. […]” for “experiments.”
as §6

VEGF-C = assay: Real-time PCR of VEGF-C mRNA in suture-inflamed corneas; format: in vivo, BALB/c mice; conditions: 24 h and 72 h after suture placement, vs vehicle-treated group
Description: as §1, with “Research. […]” for “Research.”
as §5, with “experiments. […]” for “experiments.”
as §6

VEGFR-2 = assay: Real-time PCR of VEGFR-2 mRNA in suture-inflamed corneas; format: in vivo, BALB/c mice; conditions: 24 h and 72 h after suture placement, vs vehicle-treated group
Description: as §1, with “Research. […]” for “Research.”
as §5, with “experiments. […]” for “experiments.”
as §6

VEGF-D = assay: Real-time PCR of VEGF-D mRNA in suture-inflamed corneas; format: in vivo, BALB/c mice; conditions: relative to vehicle-treated controls
Description: as §1, with “Research. […]” for “Research.”
as §5, with “experiments. […]” for “experiments.”
as §6

VEGFR-3 = assay: Real-time PCR of VEGFR-3 mRNA in suture-inflamed corneas; format: in vivo, BALB/c mice; conditions: relative to vehicle-treated controls
Description: as §1, with “Research. […]” for “Research.”
as §5, with “experiments. […]” for “experiments.”
as §6

[1] = tested on: suture-induced corneal NV; assay: Suture-induced inflammatory corneal angiogenesis (slit-lamp NV score, CD31/LYVE-1 vessel density); format: in vivo, BALB/c mice; conditions: for angiogenic response (corneal neovessels by slit lamp biomicroscopy): 2-week time course, subconjunctival every 48 h, relative to vehicle control; for significant changes in the density of lymphatic vessels / BV density (CD31high/LYVE-1−): day 14 after suture placement; for significant changes in the density of lymphatic vessels: relative to vehicle controls; for BV density (CD31high/LYVE-1−): mean±SEM, n=6, vehicle 23.18±1.12%
Description: as §1, §2, §3, §4
(§7) To quantify corneal angiogenesis, digital pictures of corneal flat-mounts were taken using an image analysis system (Spot Image Analysis, Diagnostic Instruments, Sterling Heights, Mich.). The areas covered by CD31^high/LYVE-1^−-vessels (blood vessels) or CD31^lowLYVE-1^high vessels (lymphatics) were measured morphometrically using NIH Image J software (version 1.34s; http://rsb.info.nih.gov/ij). The total corneal area was outlined using the inner-most vessel of the limbal arcade as the border. The vessel density was calculated by the proportion of neovascularized area to the whole corneal area.

[2] = tested on: VEGF-A-induced corneal HA and LA; assay: Corneal micropocket assay, VEGF-A pellet; format: in vivo, BALB/c mice; conditions: day 7; for BV density: VEGF-A micropellet, mean±SEM, n=4, vehicle 14.75±3.8%, not significantly lower; for reduction of LA: stimulated by VEGF-A micropellet
Description: as §1
(§8) The corneal micropocket assay in mice and quantification of the resultant NV has been described previously.^16,17 In brief, 0.3 μl of hydron pellets (IFN Sciences, New Brunswick, N.J.) containing 30 ng of murine IL-1β (R&D Systems, Minneapolis, Minn.) or 200 ng of VEGF-A (gift from BRB Preclinical Repository, National Cancer Institute) were prepared and implanted into the corneal stroma of male BALB/c mice. After 7 days the animals were sacrificed and the corneas were harvested for quantitative analysis of HA and LA.
as §3
(§9) Full thickness corneal tissue or 8 μm-frozen sections were fixed in acetone for 15 minutes at room temperature. To block non-specific staining, anti-FcR mAb ([…], FcγIII/II receptor) or 10% goat serum was used before primary antibodies or isotype-matched control antibodies were applied at 4° C. overnight. Thereafter, samples were incubated with secondary antibodies at RT. Each step was followed by three thorough washings in PBS for 5-10 minutes. Finally, the samples were covered with mounting medium (Vector Laboratories, Burlingame, Calif.) and analyzed by epifluorescence microscopy (Eclipse E800; Nikon, Tokyo, Japan). […]
as §7, with “The total corneal area was outlined using the inner-most vessel of the limbal arcade as the border.” left out

[3] = tested on: IL-1β-induced corneal HA and LA; assay: Corneal micropocket assay, IL-1β pellet; format: in vivo, BALB/c mice; conditions: day 7; for BV density: IL-1β micropellet, mean±SEM, n=4, vehicle 26.8±2.0%, significantly impaired; for reduction of LA: stimulated by IL-1β micropellet
Description: as §1, §8, §3, §9
as §7, with “The total corneal area was outlined using the inner-most vessel of the limbal arcade as the border.” left out

[4] = 24 h after suture placement, vehicle 81±6
[5] = 72 h after suture placement, vehicle 57±4

Structure (SMILES) | neutrophils in inflamed cornea (neutrophils; [4]) | neutrophils in inflamed cornea (neutrophils; [5]) | inhibition of neutrophils recruitment into the inflamed corneas (neutrophils) | macrophage in inflamed cornea (macrophages) | increases in TNF-α expression (mRNA) (TNF-α; 24 h after suture placement) | increases in TNF-α expression (mRNA) (TNF-α; 72 h after suture placement) | expression of IL-1α (mRNA) (IL-1α) | mRNA expression of VEGF-A (VEGF-A) | mRNA expression of VEGF-C (VEGF-C) | mRNA expression of VEGFR-2 (VEGFR-2) | mRNA expression of VEGF-D (VEGF-D) | mRNA expression of VEGFR-3 (VEGFR-3) | angiogenic response (corneal neovessels by slit lamp biomicroscopy) [1] | significant changes in the density of lymphatic vessels [1] | BV density (CD31high/LYVE-1−) [1] | BV density [2] | reduction of LA [2] | BV density [3] | reduction of LA [3] | further results
CCC(O)/C=C/C=C\C/C=C\C/C=C\C=C\[C@@H](O)CCCC(=O)O (mixture of isomers) [5S, 18 (+/−)-diHEPA] | – | – | – | – | – | – | – | – | – | – | – | – | – | – | – | – | – | – | – | anti-inflammatory activity, PMN infiltration (PMN infiltration): downregulation of PMN infiltration; potency compared with Resolvin E1 (PMN infiltration; at an equal dose amount): equipotent to Resolvin E1
CC/C=C\C[C@H](O)/C=C/C=C\C=C\C=C\[C@@H](O)[C@@H](O)C/C=C\CCC(=O)O [RvD1, 7S,8R,17S-trihydroxy-4Z,9E,11E,13Z,15E,19Z-docosahexaenoic acid] | 62±4 cells/section | 40±3 cells/section | ~30% | 57±4 cells/section | significantly suppressed | not at 72 h | not significantly altered | lower mRNA expressions | lower mRNA expressions | lower mRNA expressions | not significantly altered | not significantly altered | significant suppression | not observed | 8.4±0.39% | 10.9±2.3% | no significant reduction | 17.1±2.4% | no significant reduction | –
CC[C@@H](O)/C=C/C=C\C[C@@H](O)/C=C/C=C/C=C\[C@@H](O)CCCC(=O)O [RvE1, 5S,12R,18R-trihydroxy-6Z,8E,10E,14Z,16E-EPA] | 52±4 cells/section | 41±4 cells/section | ~30% | 49±7 cells/section | significantly suppressed | significant lowering | not significantly altered | lower mRNA expressions | lower mRNA expressions | lower mRNA expressions | not significantly altered | not significantly altered | significant suppression | not observed | 10.92±0.53% | 14.1±2.2% | no significant reduction | 18.6±2.2% | no significant reduction | –
